Reference: US11827580B2, “Aminotetraline activators of serotonin receptors” (ATAI Life Sciences AG, priority 2021, dated 2023)
Structures can show the parent of a compound that is named as a salt.

Legend:
Human 5-HT1A receptor = target: T1, Human 5-HT1A receptor (Homo sapiens, UniProt P08908); assay: cAMP secondary messenger pathway assay (HitHunter cAMP, Gi agonist mode); format: cell-based; settings: CHO cells, forskolin present, read-out: EC50 5-HT1A (Gi signaling)
T1 construct: host or cells: CHO (hamster), stably transfected, cAMP Hunter cell line
T1 sequence (P08908 1-422): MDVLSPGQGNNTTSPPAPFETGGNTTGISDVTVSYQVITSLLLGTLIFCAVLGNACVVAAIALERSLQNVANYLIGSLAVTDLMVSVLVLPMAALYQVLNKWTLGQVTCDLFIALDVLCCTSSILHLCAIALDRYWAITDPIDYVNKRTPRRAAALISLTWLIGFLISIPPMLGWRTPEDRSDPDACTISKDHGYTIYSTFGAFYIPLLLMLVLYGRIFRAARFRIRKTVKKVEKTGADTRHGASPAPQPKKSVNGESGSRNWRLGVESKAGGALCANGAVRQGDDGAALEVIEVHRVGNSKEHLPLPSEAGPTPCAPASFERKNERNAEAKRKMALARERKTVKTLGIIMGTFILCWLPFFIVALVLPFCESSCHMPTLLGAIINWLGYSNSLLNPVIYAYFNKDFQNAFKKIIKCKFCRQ
From the text: cAMP Secondary Messenger Pathway Assay Method (Performed by DiscoveRx Eurofins)
DiscoverX has developed a panel of cell lines stably expressing non-tagged GPCRs that signal through cAMP. Hit Hunter® cAMP assays monitor the activation of a GPCR via Gi and Gs secondary messenger signaling in a homogenous, non-imaging assay format using a technology developed by DiscoverX called Enzyme Fragment Complementation (EFC) with β-galactosidase (β-Gal) as the functional reporter. The enzyme is split into two complementary portions: EA for Enzyme Acceptor and ED for Enzyme Donor. ED is fused to cAMP and in the assay competes with cAMP generated by cells for binding to a cAMP-specific antibody. Active β-Gal is formed by complementation of exogenous EA to any unbound ED-cAMP. Active enzyme can then convert a chemiluminescent substrate, generating an output signal detectable on a standard microplate reader.
cAMP Hunter cell lines were expanded from freezer stocks according to standard procedures. Human 5-HT1A receptor-mediated cAMP signaling was evaluated in stably transfected hamster-derived CHO cells. Cells were seeded in a total volume of 20 μL into white walled, 384-well microplates and incubated at 37° C. overnight. cAMP modulation was determined using the DiscoverX HitHunter cAMP XS+ assay. […]
Compound activity was analyzed using CBIS data analysis suite (ChemInnovation, CA). […]

[1] = in comparison to mescaline or 2,5-dimethoxy-4-methylphenylisopropylamine at similar doses; cited from earlier work
Human 5-HT2C receptor = target: T2, Human 5-HT2C receptor (Homo sapiens, UniProt P28335); assay: Calcium mobilization assay (Gq signaling); format: cell-based
T2 construct: host or cells: U2OS or HEK (not assigned to 5-HT2C in the text)
T2 sequence (P28335 33-458): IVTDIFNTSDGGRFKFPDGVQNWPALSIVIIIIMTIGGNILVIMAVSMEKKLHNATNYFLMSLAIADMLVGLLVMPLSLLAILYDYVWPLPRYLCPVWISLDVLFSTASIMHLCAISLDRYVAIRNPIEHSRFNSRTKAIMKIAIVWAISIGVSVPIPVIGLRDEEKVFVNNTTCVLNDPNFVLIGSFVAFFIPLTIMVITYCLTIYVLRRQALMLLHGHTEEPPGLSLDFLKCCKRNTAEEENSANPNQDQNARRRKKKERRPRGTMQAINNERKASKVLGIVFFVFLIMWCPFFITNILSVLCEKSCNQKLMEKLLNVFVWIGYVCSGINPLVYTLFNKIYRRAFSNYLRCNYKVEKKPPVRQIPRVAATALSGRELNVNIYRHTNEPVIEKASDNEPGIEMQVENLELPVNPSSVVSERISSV
From the text: (§1) Calcium Mobilization Assay Method (Performed by DiscoveRx Eurofins)
(§2) The Calcium No-Wash^PLUS assay monitors the activation of a GPCR via Gq secondary messenger signaling in a live cell, non-imaging assay format. Calcium mobilization in PathHunter® cell lines or other cell lines stably expressing Gq-coupled GPCRs is monitored using a calcium-sensitive dye that is loaded into cells. GPCR activation by a compound results in the release of calcium from intracellular stores and an increase in dye fluorescence that is measured in real-time.
(§3) Cell lines expressing the GPCR of interest were expanded from freezer stocks according to standard procedures. Human 5-HT2A, 5-HT2B or 5-HT2C receptor-mediated calcium mobilization was evaluated in stably transfected human-derived U2OS (5-HT2A or 5-HT2B) or HEK (5-HT2B) cells. Cells were seeded in a total volume of 20 μL into black-walled, clear-bottom, Poly-D-lysine coated 384-well microplates and incubated at 37° C. overnight prior to testing. […]
(§4) Intermediate dilution of sample stocks was performed to generate 4× sample in assay buffer. Compound agonist activity was measured on a FLIPR Tetra (MDS). Calcium mobilization was monitored for 2 minutes and 10 μL 4× sample in HBSS/20 mM Hepes was added to the cells seconds into the assay.
(§5) Compound activity data was analyzed using CBIS data analysis suite (ChemInnovation, CA). […]

Human 5-HT2B receptor = target: T3, Human 5-HT2B receptor (Homo sapiens, UniProt P41595); assay: Calcium mobilization assay (Gq signaling); format: cell-based
T3 construct: host or cells: U2OS or HEK (the text names 5-HT2B under both)
From the text: as §1, §2, §3, §4, §5

5HT2A [2] = target: T4, 5HT2A (Homo sapiens, UniProt P28223); assay: PathHunter β-Arrestin assay; format: cell-based; parameters: host or cells: U2OS (human), stably transfected
From the text: Arrestin Pathway (Performed by DiscoverX Eurofins)
The PathHunter® β-Arrestin assay monitors the activation of a GPCR in a homogenous, non-imaging assay format using a technology developed by DiscoverX called Enzyme Fragment Complementation (EFC) with β-galactosidase (β-Gal) as the functional reporter. […] EA is fused to β-Arrestin and PK is fused to the GPCR of interest. When the GPCR is activated and β-Arrestin is recruited to the receptor, ED and EA complementation occurs, restoring β-Gal activity which is measured using chemiluminescent PathHunter® Detection Reagents.
PathHunter cell lines (DiscoveRx Eurofins) were expanded from freezer stocks according to standard procedures. Human 5-HT2A receptor-mediated GPCR β-arrestin activity was evaluated in stably transfected human-derived U2OS cells. Cells were seeded in a total […] into white walled, 384-well microplates and incubated at 37° C. overnight prior to testing.
For agonist determination, cells were incubated with sample to induce response. Intermediate dilution of sample stocks was performed to generate 5× sample in assay buffer. 5 μL of 5× sample was added to cells and incubated at 37° C. or room temperature for 120 minutes. Vehicle concentration was 1%.
β-Arrestin assay signal was generated through a single addition of 12.5 or 15 μL (50% v/v) of PathHunter Detection reagent cocktail, followed by a one hour incubation at room temperature. Microplates were read following signal generation with a PerkinElmer Envision™ instrument for chemiluminescent signal detection.
Compound activity was analyzed using CBIS data analysis suite (ChemInnovation, CA). For agonist mode assays, percentage activity was calculated using the following formula: % Activity=100%×(mean RLU of test sample−mean RLU of vehicle control)/(mean MAX control ligand−mean RLU of vehicle control).
In these studies, the MAX control ligand response was generated using 1 μM serotonin.

5HT2A [3] = target: T4, 5HT2A; assay: Calcium mobilization assay (Gq signaling); format: cell-based; parameters: host or cells: U2OS (human), stably transfected
From the text: as §1, §2
Cell lines expressing the GPCR of interest were expanded from freezer stocks according to standard procedures. Human 5-HT2A, 5-HT2B or 5-HT2C receptor-mediated calcium mobilization was evaluated in stably transfected human-derived U2OS (5-HT2A or 5-HT2B) or HEK (5-HT2B) cells. Cells were seeded in a total volume of 20 μL into black-walled, clear-bottom, Poly-D-lysine coated 384-well microplates and incubated at 37° C. overnight prior to testing.
Assays were performed in 1× Dye Loading Buffer consisting of 1× Dye, 1× Additive A and 2.5 mM Probenecid in HBSS/20 mM Hepes. Probenicid was prepared fresh. Cells were loaded with dye prior to testing. Media was aspirated from cells and replaced with 20 μL Dye Loading Buffer. Cells were incubated for 45 minutes at room temperature.
For agonist determination, cells were incubated with sample to induce response. After dye loading, cells were removed from the incubator and 10 μL HBSS/20 mM Hepes was added. 3× vehicle was included in the buffer when performing agonist dose curves to define the EC80 for subsequent antagonist assays. Cells were incubated for 30 minutes at room temperature in the dark to equilibrate plate temperature.
as §4
Compound activity data was analyzed using CBIS data analysis suite (ChemInnovation, CA). For agonist mode assays, percentage activity is calculated using the following formula: % Activity=100%×(mean RFU of test sample−mean RFU of vehicle control)/(mean MAX RFU control ligand−mean RFU of vehicle control).
In these studies, the MAX RFU was generated by using 0.1 μM serotonin for the calcium mobilization assay.

5-HT receptors = settings: cited from earlier work
5HT2A [4] = target: T4, 5HT2A; assay: 5HT2A activation (%) max at two concentrations (Table 1); format: cell-based; settings: for 5HT2A activation (%) max @ 03 μM: 03 μM [sic]; for 5HT2A activation (%) max @ 30 μM: 30 μM (first value of the cell)

T4 sequence (P28223 whole entry): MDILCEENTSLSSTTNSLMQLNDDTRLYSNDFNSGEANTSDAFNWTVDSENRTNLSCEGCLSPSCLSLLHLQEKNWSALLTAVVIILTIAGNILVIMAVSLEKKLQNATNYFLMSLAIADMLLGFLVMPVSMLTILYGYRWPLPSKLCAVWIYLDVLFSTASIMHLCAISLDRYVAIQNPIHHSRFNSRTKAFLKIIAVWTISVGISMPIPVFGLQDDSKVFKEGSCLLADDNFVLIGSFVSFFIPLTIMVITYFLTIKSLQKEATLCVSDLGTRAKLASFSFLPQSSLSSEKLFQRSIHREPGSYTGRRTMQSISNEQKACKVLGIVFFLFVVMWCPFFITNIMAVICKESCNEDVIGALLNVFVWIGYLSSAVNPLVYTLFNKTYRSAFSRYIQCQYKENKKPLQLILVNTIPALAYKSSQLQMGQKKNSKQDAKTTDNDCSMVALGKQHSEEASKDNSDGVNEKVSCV
T3 sequence (P41595 whole entry): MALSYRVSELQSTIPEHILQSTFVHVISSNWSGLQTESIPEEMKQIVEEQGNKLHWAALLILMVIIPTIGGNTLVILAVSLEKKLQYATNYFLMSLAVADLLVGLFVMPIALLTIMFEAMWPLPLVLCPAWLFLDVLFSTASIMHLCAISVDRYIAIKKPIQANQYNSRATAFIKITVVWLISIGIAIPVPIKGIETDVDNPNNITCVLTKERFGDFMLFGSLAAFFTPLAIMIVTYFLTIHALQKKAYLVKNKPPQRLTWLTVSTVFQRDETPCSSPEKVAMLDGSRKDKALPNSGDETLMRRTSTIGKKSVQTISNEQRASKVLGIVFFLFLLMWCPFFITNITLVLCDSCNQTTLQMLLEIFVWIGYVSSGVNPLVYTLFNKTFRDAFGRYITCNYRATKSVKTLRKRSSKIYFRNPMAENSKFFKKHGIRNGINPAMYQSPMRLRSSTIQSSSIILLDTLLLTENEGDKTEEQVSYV

For `COc1cc(C)c(OC)c2c1CC(N)CC2` (stereo not shown) [Compound 1-2, 5,8-dimethoxy-6-methyl-1,2,3,4-tetrahydronaphthalen-2-amine], the EC50 (Human 5-HT1A receptor) is given as 438 nM, the “common psychedelic side effects in rats” value [1] is given as “failed to elicit common psychedelic side effects” and the EC50 (Human 5-HT2C receptor) is given as 4.8 nM. The EC50 (Human 5-HT2B receptor) was 315 nM, the “agonism / potency for β-arrestin recruitment at 5-HT2A” value (5HT2A [2]) was “partial agonism” and the EC50 (5HT2A [2]; U2OS cells, read-out: EC50 5-HT2A (β-arrestin signaling)) was 386 nM. The Emax (5HT2A [2]; read-out: maximum efficacy levels (partial agonism), pathway not given, β-arrestin by context) was 66%, the “agonism of 5-HT2A Gq-mediated signaling” value (5HT2A [3]) was “full-agonism” and the “potency bias, 5-HT2A Gq-mediated signaling versus β-arrestin recruitment” value (5HT2A [3]; FIG. 1B) was about 10 fold. For the same compound, the “increase in potency at 5-HT2A compared to 5-HT2B” value (5HT2A [3]; Gq signaling, FIG. 1A) was about 8 fold, the EC50 (5HT2A [3]; calcium mobilization) was 38.8 nM and the Emax (5HT2A [3]; compared to the maximum serotonin response, read-out: max activation of 5-HT2A Gq-mediated signaling) was 97%. For the same compound, the “activity at 5-HT receptors” value (5-HT receptors) was “has activity at 5-HT receptors”, the “5HT2A activation (%) max @ 03 μM” value (5HT2A [4]) was 60.9% and the “5HT2A activation (%) max @ 30 μM” value (5HT2A [4]) was 81.9%.

For `CNC1CCc2c(OC)ccc(OC)c2C1` (stereo not shown) [Compound 1-4, 5,8-dimethoxy-N-methyl-1,2,3,4-tetrahydronaphthalen-2-amine hydrochloride], the “5HT2A activation (%) max @ 03 μM” value (5HT2A [4]) was 8.5% and the “5HT2A activation (%) max @ 30 μM” value (5HT2A [4]) was 20.3%.

With `COc1ccc(OC)c2c1CCCC2CN` (stereo not shown) [Compound 3-1, (5,8-dimethoxy-1,2,3,4-tetrahydronaphthalen-1-yl)methanamine hydrochloride] the “5HT2A activation (%) max @ 03 μM” value (5HT2A [4]) was 1.5% and the “5HT2A activation (%) max @ 30 μM” value (5HT2A [4]) was 53%.
